Measurements published in patent publication US20040068005A1, “Pharmaceutical combinations” (priority 2000, published 2004).

How the values were obtained:
normal conscious rabbits [1] = experiment: Ventricular pacing-induced myocardial ischaemia (ST-segment elevation), normal rabbits; type: in vivo, New Zealand white rabbits
Method: (§1) The experiments are carried out with adult, male New Zealand white rabbits, weighing 3.0-3.5 kg, housed as described in Am. […] Physiol, 35: H2033-H2041 and J. Moll Cell.. Cardiol.
(§2) The induction of global myocardial ischaemia was based on a method described as above.

human = settings: controlled release ISMN preparations; cited from earlier work
[2] = test system: hypercholesterolaemic, insulin resistant conscious rabbits; experiment: Hyperinsulinaemic euglycaemic glucose clamping (insulin sensitivity), hypercholesterolaemic rabbits; type: in vivo, New Zealand white rabbits; settings: for Glucose infusion rate / M values of hyperinsulinaemic and euglycaemic glucose clamping: hypercholesterolaemic; for Glucose infusion rate: insulin resistant rabbit; for Insulin sensitivity: percent of means, control = 100
Method: as §1
(§3) To estimate insulin sensitivity and/or insulin resistance, hyperinsulinaemic (100 eU/ml) euglycaemic (5.5 mM/l) glucose clamping was used. The glucose clamping values (M) were established as values of glucose infusion rates expressed in mg/kg/min to maintain blood glucose level at 5.5 mM/l.

normal conscious rabbits [3] = experiment: Hyperinsulinaemic euglycaemic glucose clamping (insulin sensitivity), normal rabbits; type: in vivo, New Zealand white rabbits
Method: (§4) The experiments are carried out with adult, male New Zealand white rabbits, weighing 3.0-3.5 kg, housed as described in Am. J. Physiol 1994, Heart Circ. Physiol, 35: H2033-H2041 and J. Moll Cell.. Cardiol. 1997, 29: 1977-1983.
as §3

healthy volunteers = experiment: Oral glucose tolerance test (OGTT) with nitroglycerin patch, plasma glucose and immunoreactive insulin; type: in vivo, human; settings: for Insulin / Glucose: OGTT
Method: Twenty persons were studied.
Between 2 oral glucose, tolerance tests (OGTT) the volunteers were randomized for receiving either active NITRODERM TTS 10 (releasing approx. 0.4 mg hours^−1 nitroglycerin) or placebo patches. The study was carried out and evaluated in a double blind fashion. The patients received the glucose solution at 8 a.m. Venous blood samples were taken during fasting (immediately before glucose) and at 15, 30, 60, 90, 120 and 180 minutes after the glucose load. The samples evaluated for plasma glucose level (mmol 1^−1) and immunoreactive insulin responses (eU ml^−1). Plasma glucose was determined by means of an autoanalyzer, using the glucoseoxidease method. Immunoreactive insulin levels were assessed by radioimmunoassay method using antihuman antibody. During the study, two ECG leads (II and V1 or V6) and arterial blood pressure were continuously monitored.

[4] = test system: hypercholesterolaemic, insulin resistant conscious rabbits; experiment: Ventricular pacing-induced myocardial ischaemia (ST-segment elevation), hypercholesterolaemic rabbits; type: in vivo, New Zealand white rabbits; settings: hypercholesterolaemic
Method: as §1, §2

[5] = test system: hypercholesterolaemic, insulin resistant rabbits; experiment: Femoral nerve conduction velocity, hyperlipidaemia-induced insulin resistance; type: in vivo, New Zealand white rabbits
Method: as §1
These series of experiments were carried out to verify/exclude sensory neuropathy.

[6] = test system: streptozotocin diabetic rabbits; experiment: Femoral nerve conduction velocity, streptozotocin diabetes; type: in vivo, New Zealand white rabbits
Method: as §4
These series of experiments were carried out to verify/exclude sensory neuropathy. Left saphenous nerve conduction velocity was determined as described in Eur J. Pharmacol 1999, 386:83-88.
Streptozotocin (40 mg/kg i.v.) produced a decrease in nerve conduction velocity in femoral “A” and “C” fibres, respectively, as determined 8 weeks after streptozotocin injection. […] The combination of any of these drugs with nitroglycerin yielded an improvement of conduction velocity in streptozotocin-diabetic aminals similar to that seen with nitroglycerin alone.

[7] = test system: isolated pancreatic islets; settings: Am. J. Physiol 1996;271;C1098-C1102; cited from earlier work
[8] = normal rabbits, 2 mg/kg per os ISMN
[9] = normal rabbits, 2 mg/kg per os controlled release ISMN
[10] = normal rabbits, 4 mg/kg per os controlled release ISMN
[11] = sampling 0 (control), active patch approx. 0.4 mg/hour nitroglycerin, n=20
[12] = Table I, sampling 0 (control), active patch

Q: What does the source list for `O=[N+]([O-])O[C@@H]1CO[C@H]2[C@@H]1OC[C@@H]2O` [ISMN, isosorbide-5-mononitrate]?
A: ST-segment elevation (normal conscious rabbits [1]; normal rabbits, 1 mg/kg per os controlled release ISMN, control 2.0): 2.0 ± 0.09 mV; anti-ischaemic effect (changes in ST-segment elevation) (normal conscious rabbits [1]; [8]): statistically insignificant anti-ischaemic effect; ST-segment elevation (normal conscious rabbits [1]; [9]): 1.9 ± 0.16 mV; ST-segment elevation (normal conscious rabbits [1]; [10]): 1.4 ± 0.12 mV; threshold anti-anginal dose (human): 30 mg/day; Glucose infusion rate ([2]; metformin 100 mg/kg p.os, ISMN controlled release 5 mg/kg p.os): 14.00 ± 0.8900 mg/kg/min; M values of hyperinsulinaemic and euglycaemic glucose clamping ([2]; insulin resistant rabbits vs control, ISMN 5 mg/kg/day (Olicard 40), metformin 100 mg/kg/day p.os over 3 days): significantly increased; Insulin sensitivity ([2]; ISMN controlled release 5 mg/kg p.os, metformin 100 mg/kg p.os): 144.4%; Glucose infusion rate (normal conscious rabbits [3]; normal rabbit, metformin 100 mg/kg p.os, ISMN controlled release 5 mg/kg p.os): 16.30 ± 0.8200 mg/kg/min; metabolic (insulin sensitising) and anti-ischaemic effect (normal conscious rabbits [3]; normal rabbits, 1 mg/kg per os ISMN): without any effect; Glucose infusion rate (normal conscious rabbits [3]; normal rabbits, 1 mg/kg per os controlled release ISMN, control 13.6): 14.2 ± 0.8 mg/kg/min; metabolic (insulin sensitising) effect (normal conscious rabbits [3]; [8]): significant metabolic effect; Glucose infusion rate (normal conscious rabbits [3]; [9]): 16.0 ± 0.9 mg/kg/min; metabolic and anti-ischaemic effects (normal conscious rabbits [3]; normal rabbits, 4 mg/kg and higher doses per os ISMN): metabolic and anti-ischaemic effects; Glucose infusion rate (normal conscious rabbits [3]; [10]): 16.3 ± 1.0 mg/kg/min; M values of hyperinsulinaemic and euglycaemic glucose clamping (normal conscious rabbits [3]; normal rabbits, drug alone vs control, isosorbide-5-mononitrate 1 mg/kg/day (Olicard 40), metformin 100 mg/kg/day p.os over 3 days): increased; threshold dose of insulin sensitising effect as share of the threshold dose of the anti-ischaemic effect (normal conscious rabbits [3]; normal rabbits, per os ISMN): 50%; threshold dose of the insulin sensitising effect (normal conscious rabbits [3]; normal rabbits, per os extended-release ISMN): 2 mg/kg

Q: With `O=[N+]([O-])OCC(CO[N+](=O)[O-])O[N+](=O)[O-]` [Nitroglycerin, nitroglycerin] as the compound, how does the Insulin (healthy volunteers; 15 min, active patch) read?
A: Its Insulin is 38.9 ± 4.4^#+ μU ml^−1.

Q: What about the Glucose (healthy volunteers; 15 min after glucose load, active patch) of the same compound?
A: The Glucose was 7.3 ± 1.1^+ mmol l^−1.

Q: What about the Glucose (healthy volunteers; 30 min, active patch) of the same compound?
A: The Glucose was 6.1 ± 0.6^+ mmol l^−1.

Q: And the Insulin (healthy volunteers; 30 min, active patch)?
A: Its Insulin is 36.3 ± 5.0^#+ μU ml^−1.

Q: What about the Glucose (healthy volunteers; 60 min, active patch) of the same compound?
A: The Glucose was 5.5 ± 0.4 mmol/L.

Q: What about the Insulin (healthy volunteers; 60 min, active patch) of the same compound?
A: The Insulin was 25.6 ± 3.3^#+ μU ml^−1.

Q: And the Glucose (healthy volunteers; 90 min, active patch)?
A: The Glucose was 4.7 ± 0.7 mmol/L.

Q: And the Insulin (healthy volunteers; 90 min, active patch)?
A: Its Insulin is 24.1 ± 2.9^#+ μU ml^−1.

Q: And the Glucose (healthy volunteers; 120 min, active patch)?
A: The Glucose was 4.2 ± 0.3 mmol/L.

Q: And the Insulin (healthy volunteers; 120 min, active patch)?
A: The Insulin was 15.2 ± 2.4^+ μU ml^−1.

Q: What about the Glucose (healthy volunteers; 180 min, active patch) of the same compound?
A: The Glucose was 4.5 ± 0.5 mmol/L.

Q: What about the Insulin (healthy volunteers; 180 min, active patch) of the same compound?
A: The Insulin was 14.4 ± 2.6^ μU ml^−1.

Q: And the Glucose (healthy volunteers; [11])?
A: Its Glucose is 4.2 ± 0.3 mmol/L.

Q: And the Insulin (healthy volunteers; [11])?
A: Its Insulin is 8.2 ± 0.9^ μU ml^−1.

Q: And the Glucose (healthy volunteers; Table I, 15 min, active patch)?
A: Its Glucose is 7.3 ± 1.1 mmol⁻¹.

Q: What about the Insulin (healthy volunteers; Table I, 15 min, active patch) of the same compound?
A: The Insulin was 38.9 ± 4.4 μU mL^−1.

Q: And the Glucose (healthy volunteers; Table I, 30 min, active patch)?
A: The Glucose was 6.1 ± 0.6 mmol⁻¹.

Q: And the Insulin (healthy volunteers; Table I, 30 min, active patch)?
A: Its Insulin is 36.3 ± 5.0 μU mL^−1.

Q: What about the Glucose (healthy volunteers; Table I, 60 min, active patch) of the same compound?
A: The Glucose was 5.5 ± 0.4 mmol⁻¹.

Q: What about the Insulin (healthy volunteers; Table I, 60 min, active patch) of the same compound?
A: Its Insulin is 25.6 ± 3.3 μU mL^−1.

Q: What about the Glucose (healthy volunteers; Table I, 90 min, active patch) of the same compound?
A: The Glucose was 4.7 ± 0.7 mmol⁻¹.

Q: What about the Insulin (healthy volunteers; Table I, 90 min, active patch) of the same compound?
A: Its Insulin is 24.1 ± 2.9 μU mL^−1.

Q: What about the Glucose (healthy volunteers; Table I, 120 min, active patch) of the same compound?
A: The Glucose was 4.2 ± 0.3 mmol⁻¹.

Q: What about the Insulin (healthy volunteers; Table I, 120 min, active patch) of the same compound?
A: Its Insulin is 15.2 ± 2.4 μU mL^−1.

Q: And the Glucose (healthy volunteers; Table I, 180 min, active patch)?
A: Its Glucose is 4.5 ± 0.5 mmol⁻¹.

Q: And the Insulin (healthy volunteers; Table I, 180 min, active patch)?
A: The Insulin was 14.4 ± 2.6 μU mL^−1.

Q: What about the Glucose (healthy volunteers; [12]) of the same compound?
A: The Glucose was 4.2 ± 0.3 mmol⁻¹.

Q: And the Insulin (healthy volunteers; [12])?
A: Its Insulin is 8.2 ± 0.9 μU mL^−1.

Q: What about the plasma glucose levels (healthy volunteers; active vs placebo patch group) of the same compound?
A: Its plasma glucose levels is “no differences”.

Q: What about the “increase in insulin in response to oral glucose load” value (healthy volunteers; compared to placebo patch group) of the same compound?
A: Its value is “significantly decreased”.

Q: What about the “intracavitary ST-segment elevation” value (normal conscious rabbits [1]; normal conscious rabbits, drug alone) of the same compound?
A: Its value is “significantly decreased”.

Q: What about the ST-segment elevation (normal conscious rabbits [1]; normal rabbit, with active patch (nitroglycerin 0.07 mg/kg/h), alone (Control) or with the drug) of the same compound?
A: The ST-segment elevation was 0.7 ± 0.10 mV.

Q: What about the ST-segment elevation ([4]; insulin resistant rabbit, with active patch (nitroglycerin 0.07 mg/kg/h), alone (Control) or with the drug) of the same compound?
A: The ST-segment elevation was 1.4 ± 0.10 mV.

Q: What about the “intracavitary ST-segment elevation / ischaemic changes produced by VOP” value ([4]; insulin resistant rabbits, drug alone) of the same compound?
A: The value was “significantly decreased”.

Q: What about the “decrease in nerve conduction velocity in “C” fibres after atherogenic diet” value ([5]; eight-week atherogenic diet, drug alone) of the same compound?
A: Its value is “attenuated”.

Q: And the Nerve conduction velocity ([5]; femoral “C” fibers, hypercholesterolaemic, insulin resistant rabbit, with active patch (nitroglycerin 0.07 mg/kg/h), alone (Control) or with troglitazon 70 mg/kg p.os)?
A: The Nerve conduction velocity was 4.3 ± 0.4 dm/s.

Q: And the Glucose infusion rate ([2]; with active patch (nitroglycerin 0.07 mg/kg/h), alone (Control) or together with the drug, same doses)?
A: The Glucose infusion rate was 12.667 mg/kg/min.

Q: What about the “M values of hyperinsulinaemic and euglycaemic glucose clamping” value ([2]; insulin resistant rabbits, nitroglycerin (0, 0.7 mg/kg/h) alone) of the same compound?
A: The value was “increased”.

Q: What about the Insulin sensitivity ([2]; nitroglycerin patch 0.07 mg/kg/h, metformin 5 mg/kg i.v., troglitazon 70 mg/kg p.os) of the same compound?
A: The Insulin sensitivity was 140.7%.

Q: What about the Nerve conduction velocity ([6]; femoral “C” fibers, streptozotocin diabetic rabbit, with active patch (nitroglycerin 0.07 mg/kg/h), alone (Control) or with the drug) of the same compound?
A: The Nerve conduction velocity was 3.6 ± 0.2 dm/s.

Q: And the “nerve conduction in “C” fibres” value ([6]; streptozotocin-diabetes model, drug alone, nitroglycerin 12-h patch on vs 12-h patch off over three days)?
A: Its value is “significantly improved”.

Q: What about the ““A” fibre conduction” value ([6]; streptozotocin-diabetes model, nitroglycerin patch, data not shown) of the same compound?
A: Its value is “marginal amelioration”.

Q: What about the Glucose infusion rate (normal conscious rabbits [3]; normal rabbit, with active patch (nitroglycerin 0.07 mg/kg/h), alone (Control) or together with the drug, troglitazon 70 mg/kg p.os, metformin 5 mg/kg i.v., glibenclamide 1 mg/kg i.v., idazoxan 2 mg/kg i.v.) of the same compound?
A: The Glucose infusion rate was 16.857 mg/kg/min.

Q: Which insulin release [7] does the source give for `N=c1c[n+](N2CCOCC2)[n-]o1` [SIN-1, 3-morpholinosydnonimine] here?
A: The insulin release was “inhibit insulin release”.
